Laboratory results as given in US8916557B2, “Substituted 4-Aryl-N-phenyl-1,3,5-triazin-2-amines” (Bayer Intellectual Property GmbH, priority 2011, dated 2014).

Key:
[1] = tested on: B16F10 mouse melanoma cells; assay: Proliferation assay (crystal violet), B16F10; format: cell-based; details: B16-F10, read-out: Inhibition of B16F10 cell proliferation
Method: (§1) Cultivated tumour cells (NCI-H460, human non-small cell lung carcinoma cells, ATCC HTB-177; DU 145, hormone-independent human prostate carcinoma cells, ATCC HTB-81; HeLa-MaTu, human cervical carcinoma cells, EPO-GmbH, Berlin; HeLa-MaTu-ADR, multidrug-resistant human cervical carcinoma cells, EPO-GmbH, Berlin; HeLa human cervical tumour cells, ATCC CCL-2; Caco-2 human colorectal carcinoma, ATCC HTB-37; B16F10 mouse melanoma cells, ATCC CRL-6475) were plated at a density of 5000 cells/well (DU145, HeLa-MaTu-ADR), 3000 cells/well (NCI-H460, HeLa-MaTu, HeLa), 1500 cells/well (Caco-2), or 1000 cells/well (B16F10) in a 96-well multititer plate in 200 μL of their respective growth medium supplemented 10% fetal calf serum. After 24 hours, the cells of one plate (zero-point plate) were stained with crystal violet (see below), while the medium of the other plates was replaced by fresh culture medium (200 μl), to which the test substances were added in various concentrations (0 μM, as well as in the range of 0.001-10 μM; the final concentration of the solvent dimethyl sulfoxide was 0.5%). The cells were incubated for 4 days in the presence of test substances. Cell proliferation was determined by staining the cells with crystal violet: the cells were fixed by adding 20 μl/measuring point of an 11% glutaric aldehyde solution for 15 minutes at room temperature. After three washing cycles of the fixed cells with water, the plates were dried at room temperature. The cells were stained by adding 100 μl/measuring point of a 0.1% crystal violet solution (pH 3.0). After three washing cycles of the stained cells with water, the plates were dried at room temperature. The dye was dissolved by adding 100 μl/measuring point of a 10% acetic acid solution. The extinction was determined by photometry at a wavelength of 595 nm. The change of cell number, in percent, was calculated by normalization of the measured values to the extinction values of the zero-point plate (=0%) and the extinction of the untreated (0 μm) cells (=100%). The IC50 values were determined by means of a 4 parameter fit.

[2] = tested on: DU 145, hormone-independent human prostate carcinoma cells; assay: Proliferation assay (crystal violet), DU 145; format: cell-based; details: DU145 cells, read-out: Inhibition of DU145 cell proliferation
[3] = tested on: HeLa human cervical tumour cells; assay: Proliferation assay (crystal violet), HeLa; format: cell-based; details: read-out: Inhibition of HeLa cell proliferation
[4] = tested on: HeLa-MaTu-ADR, multidrug-resistant human cervical carcinoma cells; assay: Proliferation assay (crystal violet), HeLa-MaTu-ADR; format: cell-based; details: read-out: Inhibition of HeLa/MaTu/ADR cell proliferation
Method: as §1

CDK2/CycE = biological target: T1, CDK2/CycE (Homo sapiens, UniProt P24941); assay: CDK2/CycE kinase assay (TR-FRET); format: biochemical; details: Method 2, 10 μM ATP
T1 construct: GST; purchased ProQinase GmbH (Freiburg, Germany); host or cells: insect cells (Sf9)
Procedure, shortened: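 TR-FRET read-out: emission ratio 665/620 nm via anti-RB(pSer807/pSer811) antibody, Eu-anti-mouse IgG and streptavidin-XL665. Kinase reaction: insect-cell GST-CDK2/CycE, compound pre-bound 15 min, 10 μM ATP final, 0.75 μM biotin-peptide, 25 min, 22 °C, pH 8.0.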

[5] = tested on: Caco-2 human colorectal carcinoma; assay: Proliferation assay (crystal violet), Caco-2; format: cell-based; details: CACO-2 cells, read-out: Inhibition of CACO-2 cell proliferation

IC50 [1]	IC50 [2]	IC50 [3]	IC50 [4]	IC50 (CDK2/CycE)	IC50 [5]	SMILES
1700 nM	1200 nM	–	920 nM	1600 nM	–	COc1cc(F)ccc1-c1ncnc(Nc2cccc(CS(C)(=O)=O)c2)n1 [Example 3, 4-(4-Fluoro-2-methoxyphenyl)-N-{3-[(methylsulfonyl)methyl]phenyl}-1,3,5-triazin-2-amine]
130 nM	–	100 nM	100 nM	89 nM	–	CS(=O)(=O)Cc1cccc(Nc2ncnc(-c3ccc(F)cc3OCc3ccccc3)n2)c1 [Example 4, 4-[2-(Benzyloxy)-4-fluorophenyl]-N-{3-[(methylsulfonyl)methyl]phenyl}-1,3,5-triazin-2-amine]
390 nM	420 nM	360 nM	350 nM	500 nM	320 nM	CS(=O)(=O)Cc1cccc(Nc2ncnc(-c3ccccc3OCc3cccc(Cl)c3)n2)c1 [Example 28, 4-{2-[(3-Chlorobenzyl)oxy]phenyl}-N-{3-[(methylsulfonyl)methyl]phenyl}-1,3,5-triazin-2-amine]
280 nM	280 nM	290 nM	160 nM	330 nM	–	CS(=O)(=O)Cc1cccc(Nc2ncnc(-c3cc(F)ccc3OCc3cccc(F)c3)n2)c1 [Example 31, 4-{5-Fluoro-2-[(3-fluorobenzyl)oxy]phenyl}-N-{3-[(methylsulfonyl)methyl]phenyl}-1,3,5-triazin-2-amine]
370 nM	260 nM	330 nM	220 nM	590 nM	–	CCOc1cc(F)ccc1-c1ncnc(Nc2cccc(CS(C)(=O)=O)c2)n1 [Example 42, 4-(2-Ethoxy-4-fluorophenyl)-N-{3-[(methylsulfonyl)-methyl]phenyl}-1,3,5-triazin-2-amine]
740 nM	480 nM	590 nM	380 nM	640 nM	1100 nM	CS(=O)(=O)Cc1cccc(Nc2ncnc(-c3ccc(F)cc3OCCF)n2)c1 [Example 61, 4-[4-Fluoro-2-(2-fluoroethoxy)phenyl]-N-{3-[(methylsulfonyl)methyl]phenyl}-1,3,5-triazin-2-amine]
230 nM	170 nM	190 nM	270 nM	130 nM	–	CS(=O)(=O)Cc1cccc(Nc2ncnc(-c3ccc(F)cc3OCc3ccnc(Cl)c3)n2)c1 [Example 88, 4-{2-[(2-Chloropyridin-4-yl)methoxy]-4-fluorophenyl}-N-{3-[(methylsulfonyl)-methyl]phenyl}-1,3,5-triazin-2-amine]

More lines, now with the values behind:

SMILES	IC50 [1]	IC50 [2]	IC50 [3]	IC50 [4]	IC50 (CDK2/CycE)	IC50 [5]
COc1cc(F)c(F)cc1-c1ncnc(Nc2cccc(CS(C)(=O)=O)c2)n1 [Example 1, 4-(4,5-Difluoro-2-methoxyphenyl)-N-{3-[(methylsulfonyl)methyl]phenyl}-1,3,5-triazin-2-amine]	1000 nM	830 nM	680 nM	400 nM	640 nM	–
COc1cc(F)ccc1-c1ncnc(Nc2cccc(CS(=O)(=O)C3CCCCC3)c2)n1 [Example 9, N-{3-[(Cyclohexylsulfonyl)methyl]phenyl}-4-(4-fluoro-2-methoxyphenyl)-1,3,5-triazin-2-amine]	1300 nM	840 nM	1000 nM	420 nM	560 nM	580 nM
COc1cc(F)ccc1-c1ncnc(Nc2cc(F)cc(CS(C)(=O)=O)c2)n1 [Example 10, 4-(4-Fluoro-2-methoxyphenyl)-N-{3-fluoro-5-[(methylsulfonyl)methyl]phenyl}-1,3,5-triazin-2-amine]	270 nM	220 nM	110 nM	80 nM	320 nM	–
CS(=O)(=O)Cc1cccc(Nc2ncnc(-c3cccc4c3OCCC4)n2)c1 [Example 12, 4-(3,4-Dihydro-2H-chromen-8-yl)-N-{3-[(methylsulfonyl)methyl]phenyl}-1,3,5-triazin-2-amine]	510 nM	320 nM	340 nM	230 nM	510 nM	390 nM
CS(=O)(=O)Cc1cccc(Nc2ncnc(-c3cccc4c3OCCO4)n2)c1 [Example 18, 4-(2,3-Dihydro-1,4-benzodioxin-5-yl)-N-{3-[(methylsulfonyl)methyl]phenyl}-1,3,5-triazin-2-amine]	640 nM	530 nM	530 nM	400 nM	840 nM	690 nM
CS(=O)(=O)Cc1cccc(Nc2ncnc(-c3ccc(Cl)cc3OC3CCCC3)n2)c1 [Example 29, 4-[4-Chloro-2-(cyclopentyloxy)phenyl]-N-{3-[(methylsulfonyl)methyl]phenyl}-1,3,5-triazin-2-amine]	640 nM	530 nM	530 nM	400 nM	12000 nM	690 nM
COc1cc(F)ccc1-c1ncnc(Nc2ccc(F)c(CS(C)(=O)=O)c2)n1 [Example 33, 4-(4-Fluoro-2-methoxyphenyl)-N-{4-fluoro-3-[(methylsulfonyl)methyl]phenyl}-1,3,5-triazin-2-amine]	460 nM	330 nM	340 nM	180 nM	360 nM	–
COc1cc(F)ccc1-c1ncnc(Nc2cccc(CS(=O)(=O)C3CC3)c2)n1 [Example 40, N-{3-[(Cyclopropylsulfonyl)methyl]phenyl}-4-(4-fluoro-2-methoxyphenyl)-1,3,5-triazin-2-amine]	820 nM	600 nM	640 nM	510 nM	1300 nM	–
CCCCOc1cc(F)ccc1-c1ncnc(Nc2cccc(CS(C)(=O)=O)c2)n1 [Example 44, 4-(2-Butoxy-4-fluorophenyl)-N-{3-[(methylsulfonyl)-methyl]phenyl}-1,3,5-triazin-2-amine]	570 nM	520 nM	340 nM	320 nM	910 nM	1000 nM
CS(=O)(=O)Cc1cccc(Nc2ncnc(-c3ccc(F)cc3OCC3CC3)n2)c1 [Example 55, 4-[2-(Cyclopropylmethoxy)-4-fluorophenyl]-N-{3-[(methylsulfonyl)methyl]phenyl}-1,3,5-triazin-2-amine]	960 nM	570 nM	840 nM	320 nM	1400 nM	400 nM
CS(=O)(=O)Cc1cccc(Nc2ncnc(-c3ccc(F)cc3OCCCC(F)(F)F)n2)c1 [Example 59, 4-[4-Fluoro-2-(4,4,4-trifluorobutoxy)phenyl]-N-{3-[(methylsulfonyl)methyl]phenyl}-1,3,5-triazin-2-amine]	330 nM	220 nM	470 nM	220 nM	710 nM	570 nM
CC#CCOc1cc(F)ccc1-c1ncnc(Nc2cccc(CS(C)(=O)=O)c2)n1 [Example 62, 4-[2-(But-2-yn-1-yloxy)-4-fluorophenyl]-N-{3-[(methylsulfonyl)methyl]phenyl}-1,3,5-triazin-2-amine]	240 nM	170 nM	110 nM	180 nM	540 nM	–
